Source: patent US20180185374A1, “INHIBITORS OF MTOR KINASE AS ANTI-VIRAL AGENTS” (THE TRUSTEES OF PRINCETON UNIVERSITY, priority 2009, published 2018)

How the values were obtained:
HCMV [1] = assay: HCMV multistep growth in serum-starved human fibroblasts, cell-free virus by TCID50; type: cell-based, human cytomegalovirus
HCMV [2] = assay: UL99 late transcript level by qPCR; type: cell-based, human cytomegalovirus; conditions: rapamycin 20 nM, Torin1 250 nM; 3 PFU/cell
4EBP1 = 4EBP1 phosphorylation in MCMV-infected MEFs, Western blot; type: cell-based, mouse; conditions: Torin1 250 nM
Experimental: FIG. 5. […] Fresh serum-free medium containing drugs was added every other day. At the indicated times, cell-free supernatants were harvested, and the amount of virus in the supernatant was quantified by the TCID50 method. Error bars represent the standard errors of the means form two independent experiments performed in duplicate. […] At 48 hpi the phosphorylation state of the indicated mTORC1 targets was analyzed by a Western blot assay by using antibodies to phosphorylated targets (4EBP1-PT^37/46 and rpS6-PS^235/6) and total proteins. The results are representative of three independent experiments.
FIG. 6. mTORC2 and its target, Akt, are not the source of rapamycin-resistant mTOR activity. […] At 6 days post infection the amount of MCMV in cell-free supernatants was determined by the TCID50 method. […] At 48 hpi, the phosphorylation state of mTORC1 targets was assessed by Western blotting using antibodies specific for the indicated proteins. (C) Confirmation of the genotype of Rictor-null MEFs. Total DNA was isolated from wild-type and Rictor-null MEFs, and the genotype was confirmed by use of PCR. (D) Same as above (A) except that Akt1- and Akt2-null MEFs were used. (E) Same as above (B) except that Akt1- and Akt2-null MEFs were used. For B and E, the error bars represent the standard errors of the means from at least two independent experiments, each performed in duplicate. For […], tubulin was assayed as a loading control. […] Protein from wild-type or mutant MEFs was analyzed by Western blotting by use of an antibody specific for Akt.
The identification of the functional roles of proteins in the mTOR signaling pathway has been facilitated by the generation of knockout mouse strains lacking individual mTOR components. […] Also as observed for HCMV (FIG. 4A), MCMV infection induced mTORC1 activity, as measured by the increased phosphorylation of rpS6. […]
We first investigated the requirement for mTORC2 for the replication of MCMV. […] Finally, that 4EBP1 was not detected in lysates of these cells by Western blot assay confirmed the phenotype of the MEFs.

eIF4F complex = assay: m7G-Sepharose cap-binding assay, MCMV-infected MEFs; type: cell-based, mouse; conditions: Torin1 250 nM, 48 hpi
Experimental: FIG. 7. […] At 6 days post infection the amount of MCMV in cell-free supernatants was determined by the TCID50 method. The error bars represent the standard errors of the means from three independent experiments, each performed in duplicate. […] At 48 hpi equal amounts of protein from cell lysates were incubated with m^7G-Sepharose. The presence of eIF4F complex components bound by the cap analog was determined by Western blotting. The results are representative of two independent experiments.
We first investigated the requirement for mTORC2 for the replication of MCMV. […] Finally, the cells were confirmed to lack an intact Rictor locus when assayed by PCR (FIG. 6C). We also employed Akt1/Akt2-null MEFs to evaluate a possible role for the Akt kinase, one of the targets of mTORC2. […] Again, the cells were confirmed to lack Akt by Western blot assay (FIG. 6F). […] 4EBP1 functions to inhibit eIF4F complex assembly unless inactivated by mTORC1-mediated phosphorylation. […] Finally, that 4EBP1 was not detected in lysates of these cells by Western blot assay confirmed the phenotype of the MEFs.

γHV68 = γHV68 replication in MEFs, TCID50; type: cell-based, murine gammaherpesvirus 68; conditions: 0.05 PFU/cell, 6 days post infection, rapamycin 20 nM, Torin1 250 nM

CCC(=O)N1CCN(c2ccc(-n3c(=O)ccc4cnc5ccc(-c6cnc7ccccc7c6)cc5c43)cc2C(F)(F)F)CC1 [Torin1]
reduction of HCMV yield (HCMV [1]; day 10, 0.05 PFU/cell, rapamycin 20 nM, Torin1 250 nM): about 160 fold
IC50 (HCMV [1]; read-out: 50% inhibitory concentration (IC50) for production of HCMV progeny, 8 days post infection): ~60 nM
levels of UL99 mRNA (HCMV [2]): decreased the levels of UL99 mRNA
4EBP1 phosphorylation (4EBP1; Akt1/Akt2-null MEFs): inhibited
4EBP1 phosphorylation (4EBP1; Rictor-null MEFs, 48 hpi): effectively inhibited
phosphorylation of 4EBP1 in MCMV-infected MEFs (4EBP1; wild-type MEFs, 48 hpi, rapamycin 20 nM, LY294002 20 μM): inhibited
formation of the eIF4F complex (eIF4F complex; 4EBP1-null MEFs): no such effect was observed
formation of the eIF4F complex (eIF4F complex; control MEFs): inhibited the formation of the eIF4F complex
γHV68 replication (γHV68): inhibited both viruses
